Measurements from US20230111310A1, “CARBOXYLIC ACID DERIVATIVE-SUBSTITUTED IMINO ARYL COMPOUND, PREPARATION METHOD THEREFOR, HERBICIDAL COMPOSITION AND USE THEREOF” (Qingdao Kingagroot Chemical Compound Co., Ltd., priority 2020, published 2023).

Legend:
Experiment in all cases: Weeding effect in post-emergence stage
Format in all cases: in vivo
[1] = system: Alopecurus japonicus; conditions: Dose 15 g/ha; fresh weight control rate level
Text: (§1) The activity level criteria for plant damage (i.e., growth control rate) are as follows:
(§2) Monocotyledonous and dicotyledonous weed seeds (Descurainia sophia, Capsella bursa-pastoris, Abutilon theophrasti, Galium aparine, Stellaria media, Lithospermum arvense, rorippa indica, Alopecurus aequalis, Alopecurus japonicus, Eleusine indica, Beckmannia syzigachne, Sclerochloa dura, Conyza Canadensis, Phleum paniculatum, Veronica didyma Tenore, Bromus japonicus, Aegilops tauschii, Phalaris arundinacea, Amaranthus retroflexus, Chenopodiaceae, Commelina communis, Sonchus arvensis, Convolvulus arvensis, Cirsium setosum, Bidens tripartita L., Solanum nigrum, Acalypha australis, Digitaria sanguinalis, Echinochloa crusgalli, Setaria viridis, Setaria glauca, Leptochloa chinensis, Monochoria vaginalis, Sagittaria trifolia, Scirpus juncoides, Cyperus rotundus, Cyperus iria, Cyperus difformis, Fimbristylis, Portulaca oleracea, Xanthium sibiricum, Pharbitis nil, etc.) and major crop seeds (wheat, corn, rice, soybean, cotton, oilseed rape, millet, sorghum, potato, sesame, ricinus, etc.) were placed in plastic pots filled with soil, then covered with 0.5-2 cm of soil, allowed to grow in a good greenhouse environment. After 2 weeks of sowing, the test plants were treated in the 2-3 leaf stage. The tested compounds of the present invention were respectively dissolved in acetone, then added with Tween 80 and 1.5 liter/ha of emulsifiable concentrate of methyl oleate as synergist, diluted with a certain amount of water to obtain a solution with a certain concentration, and sprayed with a spray tower onto the plants. After the application, the plants were cultured for 3 weeks in the greenhouse, and then the experimental results of the weeding were counted. […]

[2] = system: Setaria viridis; conditions: Dose 15 g/ha; for Weeding effect in post-emergence stage, Setaria viridis (level): fresh weight control rate level; for Weeding effect in post-emergence stage, Setaria viridis: level of fresh weight growth control rate
Text: as §1, §2

[3] = system: Eleusine indica; conditions: Dose 15 g/ha; for Weeding effect in post-emergence stage, Eleusine indica (level): fresh weight control rate level; for Weeding effect in post-emergence stage, Eleusine indica: level of fresh weight growth control rate
Text: as §1, §2

[4] = system: Digitaria sanguinalis; conditions: Dose 15 g/ha; for Weeding effect in post-emergence stage, Digitaria sanguinalis (level): fresh weight control rate level; for Weeding effect in post-emergence stage, Digitaria sanguinalis: level of fresh weight growth control rate
Text: as §1, §2

[5] = system: Abutilon theophrasti; conditions: for Weeding effect in post-emergence stage, Abutilon theophrasti (level): fresh weight control rate level; for Weeding effect in post-emergence stage, Abutilon theophrasti: level of fresh weight growth control rate
Text: as §1, §2

[6] = system: Echinochloa crusgalli; conditions: Dose 15 g/ha; for Weeding effect in post-emergence stage, Echinochloa crusgalli (level): fresh weight control rate level; for Weeding effect in post-emergence stage, Echinochloa crusgalli: level of fresh weight growth control rate
Text: as §1
Monocotyledonous and dicotyledonous weed seeds (Descurainia sophia, Capsella bursa-pastoris, Abutilon theophrasti, Galium aparine, Stellaria media, Lithospermum arvense, rorippa indica, Alopecurus aequalis, Alopecurus japonicus, Eleusine indica, Beckmannia syzigachne, Sclerochloa dura, Conyza Canadensis, Phleum paniculatum, Veronica didyma Tenore, Bromus japonicus, Aegilops tauschii, Phalaris arundinacea, Amaranthus retroflexus, Chenopodiaceae, Commelina communis, Sonchus arvensis, Convolvulus arvensis, Cirsium setosum, Bidens tripartita L., Solanum nigrum, Acalypha australis, Digitaria sanguinalis, Echinochloa crusgalli, Setaria viridis, Setaria glauca, Leptochloa chinensis, Monochoria vaginalis, Sagittaria trifolia, Scirpus juncoides, Cyperus rotundus, Cyperus iria, Cyperus difformis, Fimbristylis, Portulaca oleracea, Xanthium sibiricum, Pharbitis nil, etc.) and major crop seeds (wheat, corn, rice, soybean, cotton, oilseed rape, millet, sorghum, potato, sesame, ricinus, etc.) were placed in plastic pots filled with soil, then covered with 0.5-2 cm of soil, allowed to grow in a good greenhouse environment. After 2 weeks of sowing, the test plants were treated in the 2-3 leaf stage. The tested compounds of the present invention were respectively dissolved in acetone, then added with Tween 80 and 1.5 liter/ha of emulsifiable concentrate of methyl oleate as synergist, diluted with a certain amount of water to obtain a solution with a certain concentration, and sprayed with a spray tower onto the plants. After the application, the plants were cultured for 3 weeks in the greenhouse, and then the experimental results of the weeding were counted. The doses of the used compounds were 500, 250, 125, 60, 30, 15, 7.5 g/ha, and the averages were obtained by repeating for three times.

CCOC(=O)C(CC(F)(F)F)O/N=C/c1cc(-n2c(=O)cc(C(F)(F)F)n(C)c2=O)c(F)cc1Cl (stereo not shown) [Compound 486]
Weeding effect in post-emergence stage, Alopecurus japonicus (level) [1]: 5 (Level 5: growth control rate is above 85%) | Weeding effect in post-emergence stage, Setaria viridis (level) [2]: 5 (Level 5: growth control rate is above 85%) | Weeding effect in post-emergence stage, Eleusine indica (level) [3]: 5 (Level 5: growth control rate is above 85%) | Weeding effect in post-emergence stage, Digitaria sanguinalis (level) [4]: 5 (Level 5: growth control rate is above 85%) | Weeding effect in post-emergence stage, Abutilon theophrasti (level) ([5]; Dose 15 g/ha): 5 (Level 5: growth control rate is above 85%) | Weeding effect in post-emergence stage, Echinochloa crusgalli (level) [6]: 5 (Level 5: growth control rate is above 85%)

CC(O/N=C/c1cc(-n2c(=O)c(CCO)c(C(F)(F)F)n(C)c2=O)c(F)cc1Cl)C(=O)OCCO (racemic) [Compound 478]
Weeding effect in post-emergence stage, Abutilon theophrasti (level) ([5]; Dose 60 g/ha): 5 (Level 5: growth control rate is above 85%)

COC(=O)[C@@H](C)O/N=C/c1cc(-n2c(=O)c(I)c(C(F)(F)F)n(C)c2=O)c(F)cc1Cl [476(R)]
Weeding effect in post-emergence stage, Abutilon theophrasti (level) ([5]; Dose 15 g/ha): 5 (Level 5: growth control rate is above 85%)

CCC(C)(O/N=C/c1cc(-n2c(=O)cc(C(F)(F)F)n(C)c2=O)c(F)cc1Cl)C(=O)OC (racemic) [Compound 471]
Weeding effect in post-emergence stage, Abutilon theophrasti (level) ([5]; Dose 15 g/ha): 5 (Level 5: growth control rate is above 85%)

COC(=O)C(C)O/N=C/c1cc(-n2c(=O)c(I)c(C(F)(F)F)n(C)c2=O)c(F)cc1Cl (racemic) [Compound 476]
Weeding effect in post-emergence stage, Abutilon theophrasti (level) ([5]; Dose 15 g/ha): 5 (Level 5: growth control rate is above 85%)

CCOC(=O)CCO/N=C/c1cc(-n2c(=O)cc(C(F)(F)F)n(C)c2=O)c(F)cc1Cl [Compound 480]
Weeding effect in post-emergence stage, Abutilon theophrasti (level) ([5]; Dose 15 g/ha): 5 (Level 5: growth control rate is above 85%)

CCCC(O/N=C/c1cc(-n2c(=O)n(C)c(=S)n(C)c2=O)c(F)cc1Cl)C(=O)OCC (stereo not shown) [Compound 74]
Weeding effect in post-emergence stage, Setaria viridis [2]: 5 (Level 5: growth control rate is above 85%) | Weeding effect in post-emergence stage, Eleusine indica [3]: 4 (Level 4: growth control rate is greater than or equal to 60% and less than 85%) | Weeding effect in post-emergence stage, Digitaria sanguinalis [4]: 4 (Level 4: growth control rate is greater than or equal to 60% and less than 85%) | Weeding effect in post-emergence stage, Abutilon theophrasti ([5]; Dose 15 g/ha): 5 (Level 5: growth control rate is above 85%) | Weeding effect in post-emergence stage, Echinochloa crusgalli [6]: 5 (Level 5: growth control rate is above 85%)

CCC[C@@H](O/N=C/c1cc(-n2c(=O)n(C)c(=S)n(C)c2=O)c(F)cc1Cl)C(=O)OCC [74(R)]
Weeding effect in post-emergence stage, Setaria viridis [2]: 5 (Level 5: growth control rate is above 85%) | Weeding effect in post-emergence stage, Eleusine indica [3]: 5 (Level 5: growth control rate is above 85%) | Weeding effect in post-emergence stage, Digitaria sanguinalis [4]: 4 (Level 4: growth control rate is greater than or equal to 60% and less than 85%) | Weeding effect in post-emergence stage, Abutilon theophrasti ([5]; Dose 15 g/ha): 5 (Level 5: growth control rate is above 85%) | Weeding effect in post-emergence stage, Echinochloa crusgalli [6]: 5 (Level 5: growth control rate is above 85%)

COC(=O)C(C)O/N=C/c1cc(-n2c(=O)n(C)c(=S)n(C)c2=O)c(F)cc1C(F)(F)F (racemic) [Compound 85]
Weeding effect in post-emergence stage, Setaria viridis [2]: 5 (Level 5: growth control rate is above 85%) | Weeding effect in post-emergence stage, Eleusine indica [3]: 5 (Level 5: growth control rate is above 85%) | Weeding effect in post-emergence stage, Digitaria sanguinalis [4]: 5 (Level 5: growth control rate is above 85%) | Weeding effect in post-emergence stage, Abutilon theophrasti ([5]; Dose 15 g/ha): 5 (Level 5: growth control rate is above 85%) | Weeding effect in post-emergence stage, Echinochloa crusgalli [6]: 5 (Level 5: growth control rate is above 85%)

COC(=O)[C@@H](C)O/N=C/c1cc(-n2c(=O)c(Br)c(C(F)(F)F)n(C)c2=O)c(F)cc1Cl [475(R)]
Weeding effect in post-emergence stage, Abutilon theophrasti (level) ([5]; Dose 15 g/ha): 5 (Level 5: growth control rate is above 85%)

CC[C@@](C)(O/N=C/c1cc(-n2c(=O)cc(C(F)(F)F)n(C)c2=O)c(F)cc1Cl)C(=O)OC [471(R)]
Weeding effect in post-emergence stage, Abutilon theophrasti (level) ([5]; Dose 15 g/ha): 5 (Level 5: growth control rate is above 85%)

COC(=O)C(C)O/N=C/c1cc(-n2c(=O)c(Br)c(C(F)(F)F)n(C)c2=O)c(F)cc1Cl (racemic) [Compound 475]
Weeding effect in post-emergence stage, Abutilon theophrasti (level) ([5]; Dose 15 g/ha): 5 (Level 5: growth control rate is above 85%)

CC(O/N=C/c1cc(-n2c(=O)n(C)c(=S)n(C)c2=O)c(F)cc1Cl)C(=O)OCc1cccnc1 (stereo not shown) [Compound 59]
Weeding effect in post-emergence stage, Setaria viridis [2]: 5 (Level 5: growth control rate is above 85%) | Weeding effect in post-emergence stage, Eleusine indica [3]: 5 (Level 5: growth control rate is above 85%) | Weeding effect in post-emergence stage, Digitaria sanguinalis [4]: 5 (Level 5: growth control rate is above 85%) | Weeding effect in post-emergence stage, Abutilon theophrasti ([5]; Dose 15 g/ha): 5 (Level 5: growth control rate is above 85%) | Weeding effect in post-emergence stage, Echinochloa crusgalli [6]: 5 (Level 5: growth control rate is above 85%)

COC(=O)C[C@@H](C)O/N=C/c1cc(-n2c(=O)cc(C(F)(F)F)n(C)c2=O)c(F)cc1Cl [481(R)]
Weeding effect in post-emergence stage, Abutilon theophrasti (level) ([5]; Dose 15 g/ha): 5 (Level 5: growth control rate is above 85%)

COC(=O)C(C)O/N=C/c1cc(-n2c(=O)cc(C(F)(F)F)n(N)c2=O)c(F)cc1Cl (stereo not shown) [Control compound E, reference compound]
Weeding effect in post-emergence stage, Alopecurus japonicus (level) [1]: 3 (Level 3: growth control rate is greater than or equal to 40% and less than 60%) | Weeding effect in post-emergence stage, Setaria viridis (level) [2]: 4 (Level 4: growth control rate is greater than or equal to 60% and less than 85%) | Weeding effect in post-emergence stage, Eleusine indica (level) [3]: 3 (Level 3: growth control rate is greater than or equal to 40% and less than 60%) | Weeding effect in post-emergence stage, Digitaria sanguinalis (level) [4]: 3 (Level 3: growth control rate is greater than or equal to 40% and less than 60%) | Weeding effect in post-emergence stage, Echinochloa crusgalli (level) [6]: 4 (Level 4: growth control rate is greater than or equal to 60% and less than 85%)

COC(=O)CC(C)O/N=C/c1cc(-n2c(=O)cc(C(F)(F)F)n(C)c2=O)c(F)cc1Cl (racemic) [Compound 481]
Weeding effect in post-emergence stage, Abutilon theophrasti (level) ([5]; Dose 15 g/ha): 5 (Level 5: growth control rate is above 85%)

CC(O/N=C/c1cc(-n2c(=O)cc(C(F)(F)F)n(C)c2=O)c(F)cc1Cl)C(=O)NO (stereo not shown) [Compound 452]
Weeding effect in post-emergence stage, Abutilon theophrasti (level) ([5]; Dose 15 g/ha): 5 (Level 5: growth control rate is above 85%)

COC(=O)C(C)O/N=C/c1cc(-n2c(=O)c(OC)c(C(F)(F)F)n(C)c2=O)c(F)cc1Cl (racemic) [Compound 477]
Weeding effect in post-emergence stage, Abutilon theophrasti (level) ([5]; Dose 15 g/ha): 5 (Level 5: growth control rate is above 85%)

COC(=O)CCO/N=C/c1cc(-n2c(=O)cc(C(F)(F)F)n(C)c2=O)c(F)cc1Cl [Compound 479]
Weeding effect in post-emergence stage, Abutilon theophrasti (level) ([5]; Dose 15 g/ha): 5 (Level 5: growth control rate is above 85%)

COC(=O)[C@@H](C)O/N=C/c1cc(-n2c(=O)c(OC)c(C(F)(F)F)n(C)c2=O)c(F)cc1Cl [477(R)]
Weeding effect in post-emergence stage, Abutilon theophrasti (level) ([5]; Dose 15 g/ha): 5 (Level 5: growth control rate is above 85%)

C[C@@H](O/N=C/c1cc(-n2c(=O)c(CCO)c(C(F)(F)F)n(C)c2=O)c(F)cc1Cl)C(=O)OCCO [478(R)]
Weeding effect in post-emergence stage, Abutilon theophrasti (level) ([5]; Dose 60 g/ha): 5 (Level 5: growth control rate is above 85%)

C[C@@H](O/N=C/c1cc(-n2c(=O)cc(C(F)(F)F)n(C)c2=O)c(F)cc1Cl)C(=O)NO [452(R)]
Weeding effect in post-emergence stage, Abutilon theophrasti (level) ([5]; Dose 15 g/ha): 5 (Level 5: growth control rate is above 85%)

CC(ON=Cc1cc(-n2c(=O)cc(C(F)(F)F)n(C)c2=O)c(F)cc1Cl)C(=O)OCCOC(=O)C(C)ON=Cc1cc(-n2c(=O)cc(C(F)(F)F)n(C)c2=O)c(F)cc1Cl [451(R)]
Weeding effect in post-emergence stage, Abutilon theophrasti (level) ([5]; Dose 15 g/ha): 5 (Level 5: growth control rate is above 85%)

CC(O/N=C/c1cc(-n2c(=O)cc(C(F)(F)F)n(C)c2=O)c(F)cc1Cl)C(=O)OCCOC(=O)C(C)O/N=C/c1cc(-n2c(=O)cc(C(F)(F)F)n(C)c2=O)c(F)cc1Cl (stereo not shown) [Compound 451]
Weeding effect in post-emergence stage, Abutilon theophrasti (level) ([5]; Dose 15 g/ha): 5 (Level 5: growth control rate is above 85%)
